According to patent US7838674B2, “Tetracyclic lactame derivatives” (Novartis AG, priority 2007, dated 2010):
pIC50: −log10 of the molar value. Where a name gives a salt, the structure may show the parent alone.

Target: T1, MAPKAPK2 enzyme (HIS-MK2, Invitrogen PV4019) (Homo sapiens, UniProt P49137)
T1 construct: His; purchased Invitrogen PV4019
Experiment: Alternative MAPKAPK2 assay (Caliper microfluidic mobility shift, HSP27-peptide)
Type: biochemical
Settings: HIS-MK2 0.013 nM, ATP 10 μM, 60 min at 30° C.

T1 sequence (P49137 whole entry): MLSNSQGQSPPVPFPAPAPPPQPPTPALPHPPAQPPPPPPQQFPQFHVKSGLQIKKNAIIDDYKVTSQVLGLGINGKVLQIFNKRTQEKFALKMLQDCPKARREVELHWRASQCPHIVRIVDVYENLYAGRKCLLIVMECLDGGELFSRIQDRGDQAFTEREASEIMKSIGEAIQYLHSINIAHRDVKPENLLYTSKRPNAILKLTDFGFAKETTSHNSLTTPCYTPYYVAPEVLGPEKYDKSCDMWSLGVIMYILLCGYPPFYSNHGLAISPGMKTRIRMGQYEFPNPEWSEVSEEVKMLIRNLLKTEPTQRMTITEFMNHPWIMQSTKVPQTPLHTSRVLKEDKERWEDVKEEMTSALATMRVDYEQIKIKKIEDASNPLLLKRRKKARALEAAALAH

pIC50	SMILES
7.17	O=C1NC2(CCC2)Cc2[nH]c3c(c21)CCc1cnc(-c2cccnc2)cc1-3 [Example 104, 2-(1-Amino-cyclobutylmethyl)-8-pyridin-3-yl-4,5-dihydro-1H-pyrrolo[2,3-f]isoquinoline-3-carboxylic acid lactam]
7.74	CC(C)(N)CCc1ccc(-c2cc3c(cn2)CCc2c-3[nH]c3c2C(=O)NC2(CC2)C3)cc1 [Example 78, 2-(1-Amino-cyclopropylmethyl)-8-[4-(3-amino-3-methyl-butyl)-phenyl]-4,5-dihydro-1H-pyrrolo[2,3-f]isoquinoline-3-carboxylic acid lactam]
7.66	O=C1NCC2(CC2)c2[nH]c3c(c21)CCc1cnc(-c2cncc(N4CCOCC4)c2)cc1-3 [Example 302, 2-(5-Morpholin-4-yl-pyridin-3-yl)-10-spirocyclopropyl-5,6,8,9,10,11-hexahydro-3,8,11-triaza-benzo[a]fluoren-7-one]
7.92	COc1cncc(-c2cc3c(cn2)CCc2c4c(n(C)c2-3)CC2(CNC2)NC4=O)c1 [Example 140, 2-(3-Amino-azetidin-3-ylmethyl)-8-(5-methoxy-pyridin-3-yl)-1-methyl-4,5-dihydro-1H-pyrrolo[2,3-f]isoquinoline-3-carboxylic acid lactam hydrochloride]
7.59	O=C1NC2(CC2)C2(CC2)c2[nH]c3c(c21)CCc1cnc(-c2ccc(N4CCNCC4)cc2)cc1-3 [Example 220, 2-(1′-Amino-bicyclopropyl-1-yl)-8-(4-piperazin-1-yl-phenyl)-4,5-dihydro-1H-pyrrolo[2,3-f]isoquinoline-3-carboxylic acid lactam hydrochloride]
> 8.52	CN1CC2(C1)c1[nH]c3c(c1C(=O)NC21CC1)CCc1cnc(-c2cccc(F)c2)cc1-3 [Example 208, 2-[3-(1-Amino-cyclopropyl)-1-methyl-azetidin-3-yl]-8-(3-fluoro-phenyl)-4,5-dihydro-1H-pyrrolo[2,3-f]isoquinoline-3-carboxylic acid lactam]
7.43	CC(C)Oc1ccc(-c2cc3c(cn2)CCc2c-3[nH]c3c2C(=O)NC2(CC2)C32CC2)cn1 [Example 200, 2-(1′-Amino-bicyclopropyl-1-yl)-8-[6-isopropoxy-pyridin-3-yl]-4,5-dihydro-1H-pyrrolo[2,3-f]isoquinoline-3-carboxylic acid lactam]
> 8.52	CCN1CC2(C1)c1[nH]c3c(c1C(=O)NC21CC1)CCc1cnc(-c2ccc(OC(C)C)nc2)cc1-3 [Example 250]
8.22	Cn1c2c(c3c1C1(CNC1)CNC3=O)CCc1cnc(-c3cccc(Cl)c3)cc1-2 [Example 189, 2-[3-Aminomethyl-azetidin-3-yl]-8-(3-chloro-phenyl)-1-methyl-4,5-dihydro-1H-pyrrolo[2,3-f]isoquinoline-3-carboxylic acid lactam hydrochloride]
7.26	O=C1NCC2(CC2)c2[nH]c3c(c21)CCc1cnc(-c2ccncc2)cc1-3 [Example 124, 2-(1-Aminomethyl-cyclopropyl)-8-pyridin-4-yl-4,5-dihydro-1H-pyrrolo[2,3-f]isoquinoline-3-carboxylic acid lactam]
> 8.52	CN1CC2(C1)c1[nH]c3c(c1C(=O)NC21CC1)CCc1cnc(-c2cccc(C(=O)NCc4ccccc4)c2)cc1-3 [Example 226, 2-[3-(1-Amino-cyclopropyl)-1-methyl-azetidin-3-yl]-8-(3-benzylcarbamoyl-phenyl)-4,5-dihydro-1H-pyrrolo[2,3-f]isoquinoline-3-carboxylic acid lactam]
7.05	CN(C)c1ccc(-c2cc3c(cn2)CCc2c4c(n(C)c2-3)CC2(CNC2)NC4=O)cn1 [Example 147, 2-(3-Amino-azetidin-3-ylmethyl)-8-(6-dimethylamino-pyridin-3-yl)-1-methyl-4,5-dihydro-1H-pyrrolo[2,3-f]isoquinoline-3-carboxylic acid lactam hydrochloride]
7.54	CN1CCOc2cc(-c3cc4c(cn3)CCc3c5c(n(C)c3-4)CC3(CNC3)NC5=O)ccc21 [Example 145, 2-(3-Amino-azetidin-3-ylmethyl)-1-methyl-8-(4-methyl-3,4-dihydro-2H-benzo[1,4]oxazin-7-yl)-4,5-dihydro-1H-pyrrolo[2,3-f]isoquinoline-3-carboxylic acid lactam hydrochloride]
7.70	COc1ccc(-c2cc3c(cn2)CCc2c4c(n(C)c2-3)CC2(CNC2)NC4=O)cc1 [Example 38, 2-(3-Amino-azetidin-3-ylmethyl)-8-(4-methoxy-phenyl)-1-methyl-4,5-dihydro-1H-pyrrolo[2,3-f]isoquinoline-3-carboxylic acid lactam hydrochloride]
> 8.52	CN1CC2(C1)c1[nH]c3c(c1C(=O)NC21CC1)CCc1cnc(-c2ccc(C(F)(F)F)nc2)cc1-3 [Example 222, 2-[3-(1-Amino-cyclopropyl)-1-methyl-azetidin-3-yl]-8-(6-trifluoromethyl-pyridin-3-yl)-4,5-dihydro-1H-pyrrolo[2,3-f]isoquinoline-3-carboxylic acid lactam]
7.72	CN1CC2(C1)c1[nH]c3c(c1C(=O)NC21CC1)CCc1cnc(-c2cccc(F)c2)nc1-3 [Example 213, 2-[3-(1-Amino-cyclopropyl)-1-methyl-azetidin-3-yl]-8-(3-fluoro-phenyl)-4,5-dihydro-1H-1,7,9-triaza-cyclopenta[a]naphthalene-3-carboxylic acid lactam]
> 8.52	O=C1NCC2(CNC2)c2[nH]c3c(c21)CCc1cnc(-c2ccc(Oc4ccc(F)cc4F)nc2)cc1-3 [Example 154, 2-(3-Aminomethyl-azetidin-3-yl)-8-[6-(2,4-difluoro-phenoxy)-pyridin-3-yl]-4,5-dihydro-1H-pyrrolo[2,3-f]isoquinoline-3-carboxylic acid lactam]
7.74	O=C1NC2(CC2)Cc2[nH]c3c(c21)CCc1cnc(-c2ccc(N4CCNCC4)cc2)cc1-3 [Example 216, 2-(1-Amino-cyclopropylmethyl)-8-(4-piperazin-1-yl-phenyl)-4,5-dihydro-1H-pyrrolo[2,3-f]isoquinoline-3-carboxylic acid lactam hydrochloride]
7.47	CC(C)(O)CCc1ccc(-c2cc3c(cn2)CCc2c-3[nH]c3c2C(=O)NCC32CC2)cc1 [Example 126, 2-(1-Aminomethyl-cyclopropyl)-8-[4-(3-hydroxy-3-methyl-butyl)-phenyl]-4,5-dihydro-1H-pyrrolo[2,3-f]isoquinoline-3-carboxylic acid lactam]
7.05	CC(C)(O)C#Cc1ccc(-c2cc3c(cn2)CCc2c-3[nH]c3c2C(=O)NCC32CC2)cc1 [Example 119]
8.10	CCN1CC2(C1)c1[nH]c3c(c1C(=O)NC21CC1)CCc1cnc(-c2cnc(OC)c(F)c2)cc1-3 [Example 252, 2-[3-(1-Amino-cyclopropyl)-1-ethyl-azetidin-3-yl]-8-(5-fluoro-6-methoxy-pyridin-3-yl)-4,5-dihydro-1H-pyrrolo[2,3-f]isoquinoline-3-carboxylic acid lactam]
8.15	CN1CC2(C1)c1[nH]c3c(c1C(=O)NC21CC1)CCc1cnc(-c2ccc(OCCN4CCOCC4)cc2)nc1-3 [Example 227, 2-[3-(1-Amino-cyclopropyl)-1-methyl-azetidin-3-yl]-8-[4-(2-morpholin-4-yl-ethoxy)-phenyl]-4,5-dihydro-1H-1,7,9-triaza-cyclopenta[a]naphthalene-3-carboxylic acid lactam]
7.82	O=C1NCC2(CCC2)c2[nH]c3c(c21)CCc1cnc(-c2ccc(F)nc2)cc1-3 [Example 300, 2-(6-Fluoro-pyridin-3-yl)-10-spirocyclobutyl-5,6,8,9,10,11-hexahydro-3,8,11-triaza-benzo[a]fluoren-7-one]
8.10	CC(=O)N1CCN(c2ccc(-c3cc4c(cn3)CCc3c-4[nH]c4c3C(=O)NCC43CC3)cc2C#N)CC1 [Example 313, 2-(4-Acetyl-piperazin-1-yl)-10-spirocyclopropyl-5-(7-oxo-6,7,8,9,10,11-hexahydro-5H-3,8,11-triaza-benzo[a]fluoren-2-yl)-benzonitrile]
8.22	COc1ccc(-c2ncc3c(n2)-c2c(c4c(n2C)CC2(CNC2)NC4=O)CC3)cc1 [Example 131, 2-(3-Amino-azetidin-3-ylmethyl)-8-(4-methoxy-phenyl)-1-methyl-4,5-dihydro-1H-1,7,9-triaza-cyclopenta[a]naphthalene-3-carboxylic acid lactam hydrochloride]
> 8.52	CC(C)Oc1ccc(-c2cc3c(cn2)CCc2c-3[nH]c3c2C(=O)NC2(CC2)C32CN(C)C2)cn1 [Example 254, 2-[3-(1-Amino-cyclopropyl)-1-methyl-azetidin-3-yl]-8-(6-isopropoxy-pyridin-3-yl)-4,5-dihydro-1H-pyrrolo[2,3-f]isoquinoline-3-carboxylic acid lactam]
> 8.52	COc1ccc(-c2cc3c(cn2)CCc2c-3[nH]c3c2C(=O)NCC32CNC2)cc1 [Example 165, 2-(3-Aminomethyl-azetidin-3-yl)-8-(4-methoxy-phenyl)-4,5-dihydro-1H-pyrrolo[2,3-f]isoquinoline-3-carboxylic acid lactam hydrochloride]
7.52	O=C1NCC2(CC2)c2[nH]c3c(c21)CCc1cnc(-c2cncnc2)cc1-3 [Example 123, 2-(1-Aminomethyl-cyclopropyl)-8-pyrimidin-5-yl-4,5-dihydro-1H-pyrrolo[2,3f]isoquinoline-3-carboxylic acid lactam]
7.35	CN1CCOc2cc(-c3cc4c(cn3)CCc3c-4[nH]c4c3C(=O)NCC43CC3)ccc21 [Example 130, 2-(1-Aminomethyl-cyclopropyl)-8-(4-methyl-3,4-dihydro-2H-benzo[1,4]oxazin-7-yl)-4,5-dihydro-1H-pyrrolo[2,3-f]isoquinoline-3-carboxylic acid lactam]
7.35	Cn1c2c(c3c1-c1cc(-c4cccc(N5CCOCC5)c4)ncc1CC3)C(=O)NC1(CNC1)C2 [Example 146, 2-(3-Amino-azetidin-3-ylmethyl)-8-(3-morpholin-4-yl-phenyl)-1-methyl-4,5-dihydro-1H-pyrrolo[2,3-f]isoquinoline-3-carboxylic acid lactam hydrochloride]
